{
  "source": "patent US12123059B2",
  "about": "“Predicting cardiotoxicity risk in cancer patients receiving anthracyclines chemotherapy” (Fundación Para La Investigación Del Hospital Universitario …, priority 2018, dated 2024)",
  "tested_on": "human cardiomyocytes",
  "test": "Modulation of miRNA copy number by Doxorubicin in human cardiomyocytes in culture",
  "format": "cell-based",
  "conditions": "Doxorubicin 1 μM for 24 h, FIG. 4",
  "protocol": "FIG. 4. (A, B) Graphics showing modulation of miRNAs by Doxorubicin in human cardiomyocytes and patients' serum. Left panels show copy number of indicated miRNAs in cardiomyocytes in culture before or after the addition of Doxorubicin (1 μM) for 24 h. Right panels show copy numbers of indicated miRNAs as detected by RNAseq in serum from control patients and cases and expressed as mean±SEM (N=10 in each case) before or after completion of anthracycline chemotherapy. Only miRNAs showing a similar tendency in cells and patients' serum are illustrated. *P<0.05.\nThe specific signature of miRNAs has been detected in serum. Since the pathways related to miRNAs are linked to cardiomyocytes, the copy number of the miRNAs of interest in human cardiomyocytes was also measured. As observed in FIG. 4, the miRNAs previously detected in serum were also present in human cardiomyocytes (left panels) and their expression level is altered when cells are damaged by Doxorubicin. […] As shown in the right panel of FIG. 4, the copy number of miRNA-22-3p increases both in cells and serum of patients after anthracycline treatment whereas miRNA-30b, miRNA-148a, miRNA-150-5p, and miRNA-4732-3p decrease their expression levels. […] Indeed, this set of miRNAs regulates genes involved in the aforementioned biological pathways (FIG. 5)",
  "data": [
    {"smiles": "COc1cccc2c1C(=O)c1c(O)c3c(c(O)c1C2=O)C[C@@](O)(C(=O)CO)C[C@@H]3O[C@H]1C[C@H](N)[C@H](O)[C@H](C)O1", "note": "[Doxorubicin]", "values": [
      {"measurement": "copy number of miRNA-22-3p", "result": "increases"},
      {"measurement": "expression level of miRNA-30b", "result": "decrease"},
      {"measurement": "expression level of miRNA-148a", "result": "decrease"},
      {"measurement": "expression level of miRNA-150-5p", "result": "decrease"},
      {"measurement": "expression level of miRNA-4732-3p", "result": "decrease"}
    ]}
  ]
}
